Measurements published in patent publication US6512009B1, “Combination for the treatment of alcohol and drug dependence containing an opioid antagonist and a NMDA receptor complex modulator” (Lipha, priority 1998, dated 2003).
Where two headings read alike, the source gives them in different places.

Columns and labels:
[1] = tested on: ethanol dependent rats; assay: Voluntary ethanol intake in ethanol dependent (alcohol preferring) rats, free choice between 10% ethanol solution and water; format: in vivo, Long Evans rats
Excerpt: Ethanol dependent rats were selected as previously described (Boismare F., Daoust M., Moore N., Saligaut C., Chadelaud M., Chrétien P., Durlach J., Lhuintre J. P., A homotaurine derivative reduces the voluntary intake of ethanol by rats: are cerebral GABA receptors involved?, Pharm. Biochem. Behav., 21, 787-789, 1984).
Adult male Long Evans rats weighing 180±20 g at the beginning of the experiment were obtained from “Centre d'élevage Janvier” (France). The rats were housed in individual cages and had free access to food (UAR, France standard diet). They were kept with an ambient temperature of 21° C. and a 12 hr/12 hr light-dark photoperiod. […] Every other day, fluid intakes and body weights were measured, the drinking bottles were refilled and randomly rotated. Food consumption was also measured each week be weighting food pellets. […]
All the drugs were prepared as saline (NaCl 0.9%) solutions and animals were daily i.p. injected with: acamprosate 100 mg/kg, naltrexone 10 mg/kg, acamprosate 100 mg/kg+naltrexone 10 mg/kg or saline 1 ml/200 g body weight. […] Alcohol intakes were expressed as gram of absolute alcohol drunk per kilo of body weight per day (g.kg.d) for alcohol.
FIG. 1 represents means±sem of ethanol intake, expressed as gram of absolute alcohol during each period of pre-treatment, treatment and post-treatment in all groups of rats. […]

[2] = tested on: alcohol dependent patients; conditions: used together with supportive therapy; cited from earlier work

Compound	Ethanol intake ([1]; acamprosate 100 mg/kg daily i.p., 14 days treatment period, p<0.008)	Ethanol intake [1]	Rate of relapse to heavy drinking [2]
CC(=O)NCCCS(=O)(=O)O [acamprosate]	significantly decreased		
O=C1CC[C@@]2(O)[C@H]3Cc4ccc(O)c5c4[C@@]2(CCN3CC2CC2)[C@H]1O5 [naltrexone]		significantly decreased	reduce the rate of relapse to heavy drinking
